# From US6680025B2, “Device and method for photoactivation” (Cerus Corporation, priority 1989, dated 2004)
# Legend:
# [1] = Solubility of photoreactive compounds in 1×TE; assay type: physicochemical; conditions: excess compound heated 50-70° C., stirred at room temperature, filtered, optical density
# Protocol: The solubilities of AMIP, AMDMIP, DMIP, MIP and isopsoralen (IP) were determined experimentally according to the scheme set forth in FIG. 5. To perform the solubility measurement, it was first necessary to establish known optical densities for a 1 μg/ml solution of each compound. These were determined by preparing either ethanolic or aqueous stocks of each compound at known concentrations in 1×TE, then measuring the optical density of each solution. From this information, the absorption of a 1 μg/ml solution was computed. Alternatively, the extinction coefficient may be thus determined and used in the same fashion. In this manner, the following absorption data was collected:
# Following this step, undissolved compound was removed by filtration using a 0.2 u nylon-66 syringe filter (Arco LC13; Gelman). The concentration of the remaining soluble compound was then determined by measuring the optical density of the filtrate and computing the solubility from the known optical density of a 1 μg/ml solution of that compound. The solubility of the compounds was thus determined to be as follows: […]
# [2] = as reported by Dall'Acqua et al.; cited from earlier work
# [3] = test system: DNA polymerase I from E. coli. B; conditions: covalently bound compound; cited from earlier work
# human placental DNA = assay: PCR in presence of AMDMIP and DMSO co-solvent; assay type: biochemical; conditions: no AMDMIP, 0% DMSO gave 139,000
# Protocol: In this example, the effect of DMSO on PCR amplification in the presence of high concentrations of sterilizing compound (AMDMIP) was investigated. Samples were prepared for PCR which contained 1 μg of human placental DNA either with or without (unirradiated) AMDMIP (200 μg/ml). The samples were amplified 30 cycles under standard PCR conditions in the presence of 0%, 1%, 5% or 10% DMSO. The reaction mix contained α-^32P-dCTP. Following amplification, the samples were analyzed by PAGE (data not shown).
# PCR'd MACS 1555 target = assay: Inhibition of PCR by non-psoralen compounds in the absence of light; assay type: biochemical
# From the text: The compounds tested were the following: 1) ethidium bromide (a Phenanthridine, see Table 1), 2) xylene cylanol (an Organic Dye, see Table 1), 3) bromphenol blue (an Organic Dye, see Table 1), 4) coumarin and 5) methylene blue (a Phenazathionium Salt, see Table 1).
# A separate experiment examined PCR inhibition with coumarin and methylene blue in the absence of light. The following concentrations of methylene blue were tried: 4.3×10^−2, 4.3×10^−3, 4.3×10^−4 and 4.3×10^−5 M. Concentrations of coumarin tried included: 7×10^−3, 7×10^−4, 7×10^−5 and 7×10^−6 M. Compound was added to PCR tube containing α-^32P-dCTP and target (1 μl […].; PCR'd MACS 1555 per assay-point). PCR was carried out for 30×cycles. Samples were loaded onto a 12%/8 M urea gel.
# Taq I DNA polymerase = assay: Primer extension on site-specific monoadducted 71-mer, Taq polymerase; assay type: biochemical, Thermus aquaticus; conditions: 55° C., single extension
# Protocol: In this experiment, monoadducted 71-mers (as well as unmodified 71-mers) were used in template-dependent enzymatic extension. AMIP, AMDMIP, and MIP 71-mer monoadducts were made as in Example 42. Extension was carried out as in Example 43 except that in this experiment, Taq I DNA polymerase, a thermostable DNA polymerase isolated from Thermus aquaticus (Stratagene, Inc., La Jolla, Calif.) was assessed for its ability to read past isopsoralens.
# The reaction mixture was in 80 μl total volume and comprised 1×Taq buffer, 200 μM each of dNTP's, 0.05 units of Taq per μl of reaction volume; 1×10^−9 M in 71-mer MA; 1×10^−8 M in ^32P-labelled SK-39. Each reaction was set up with everything except Taq polymerase. The samples were initially heated to 95° C. for 5 mins, then incubated at 55° C. for 3 mins. The extension reaction was initiated by addition of Tas polymerase. At the indicated time points (0.5, 1.0, 5.0 mins), 20 μl of the reaction mix was removed to a tube containing 1 μl of 0.5 M EDTA to stop the reaction. All products were analyzed on a 20% polyacrylamide, 7 M urea gel followed by autoradiography.
# This experiment investigated whether blocking of Tag polymerase by monoadducts is complete or whether monoadducts can be bypassed by the enzyme. In order to view the process of bypass syrthesis, it is necessary to cycle the extension reaction of the primer with the 71-mer templates. Cycling in this case consists of mixing the primer with the 71-mer template, adding Taq polymerase and appropriate reagents, extending, heating to induce strand separation, reannealing of the primer to the 71-mer template, extending again, and subsequent stand separation. This process can be repeated as necessary. During this process, only the complement of the 71-mer template is being synthesized. It is accumulating in a linear fashion with the number of thermal cycles (in contrast to PCR where both strands are being synthesized and accumulate geometrically).
# The templates and reaction conditions were as in Example 44 above except that three samples were used for each monoadduct and each sample was tested under different conditions:
# Samples (1): one sample for each monoadduct was used to carry out extension at 55° C. as in Example 43;
# Samples (2): one sample for each monoadduct was used to carry out extension by the following series of steps: denaturing at 95° C.; incubating for 30 seconds at 55° C.; adding Taq polymerase for 3 minutes at 55° C.; cooling the reaction for 1 minute at 7° C.; stopping the reaction with EDTA for one minute at 95° C.
# Samples (3): one sample for each monoadduct was used to carry out extension by repeating the following series of steps nine times: denaturing at 95° C.; incubating for 30 seconds at 55° C.; adding Taq polymerase for 3 minutes at 55° C.; cooling the reaction for 1 minute at 7° C. At the end, the reaction is stopped with EDTA for one minute at 95° C.
# To investigate this question further, a new 5-MIP monoadducted 71-mer was prepared by repurification of the HPLC purified 5-MIP ronoadducted 15-mer by PAGE. In this way, more of the non-monoadducted 15-mer was removed prior to ligation. The purified 71-mer was then used as template in an extension experiment as described in Example 45. After 10 cycles, there was still evidence of extension product (FIG. 34).
# Monoadducted 71-mer was constructed as described, but for HMT. Extension was carried out and analyzed as before on PAGE. […] Full length 71-mer is not made and a shorter strand corresponding to the position of the HMT adduct was made.
# E. coli polymerase I = conditions: cited from earlier work
# HIV 115-mer = assay: PCR with pre-irradiated photobiotin or monoazide ethidium chloride; assay type: biochemical
# Protocol: In this experiment, photobiotin and monoazide ethidium chloride were tested as PCR sterilization reagents. The temporal steps were performed to examine photoproduct effects (if any). Solutions of photobiotin and monoazide ethidium chloride were made up in 1×Taq buffer. […] Each compound solution was divided into two parts: One part was irradiated under a GE sunlamp through a pyrex filter (300nm cut-off); the other half was irradiated under a GE sunlamp through a 2.9 M NaNO2 liquid filter (400 nm cut-off). Irradiations were carried out on ice for 15 minutes. After irradiation, aliquots of each tube were carried over into tubes containing PCR reagents and target (HIV 115-mer); PCR was then carried out for 30 cycles in the presence of α-^32P-dCTP. After amplification aliquots were analyzed on 12% acrylamide/8M urea gels.
# Taq polymerase = Taq polymerase (Thermus aquaticus, UniProt P19821); assay: Taq primer extension of 71-mer after random addition of compound or photoproduct; assay type: biochemical; conditions: photobiotin 6×10^−6 M
# From the text: In this experiment, the ability of AMIP, AMDMIP and MIF to block replication of 71-mer is investigated by randomly adding each compound to the 71-mer. Of course, addition may only be random in the sense that one or more adducts may be formed with any one strand of nucleic acid. The actual placement of the isopsoralen may be governed by preferential binding at particular sites (e.g. A:T). In addition to blockage by random adducts, photoproducts of the various isopsoralens may be providing an inhibitory effect. No attempt to separate the effects of photoproduct from the effects of covalent adducts on the 71-mer template was made in this series of experiments.
# In these experiments, the 71-mer template (10^−9 M) was primed with ^32P-SK-39 (10^−8) and extended with Taq polymerase in a total volume of […]. The dNTP concentration was 200 μM. In the control samples, the 71-mer, the primer, and the dNTPs were mixed in Taq buffer in a volume of 18 p1. These samples were initially denatured at 95° C. for 5 minutes, followed by equilibration at 55° C. for 3 minutes. Taq enzyme was then added (0.5 units) and the extension reaction was carried out for 5 minutes at 55° C. The reaction was stopped by making the solution 10 mM in EDTA. In another set of samples, the 71-mer in 10 μl was mixed with either AMIP (200 μg/ml), AMDMIP (200 μg/ml), or MIP (60 μg/ml). Half of these samples were irradiated for 15 minutes on the CE-I device at 25° C. The other half was kept in the dark as controls. These samples were then mixed with the primer and dNTPs as before, and were subjected to the same thermal profile and extension reactions as the samples that were described earlier. The results were examined by PAGE. The extended product bands were identified by autoradiography, excised and counted (data not shown). […]
# 71-mer was made up in Taq buffer. Samples were prepared as follows: 1) dark control samples were not subjected to activating light; 2) 10 μl samples of the 71-mer (2×10^−9 M) were irradiated in the presence of 200 μg/ml AMDMIP, and 3) 10 μl samples of a 200 μg/ml solution of AMDMIP were irradiated in the absence of the 71-mer target. All irradiations were carried out with the CE-I device at 25° C. After preparing the above samples, unirradiated AMDMIP was added to one set of the dark control samples. Another set of dark controls received irradiated AMDMIP. ^32P-SK-39 primer and dNTPs were then added to all samples and the volume was adjusted to 18 μl. These samples were denatured at 95° C. for 5 minutes, followed by equilibration at 55° C. for 3 minutes. Taq polymerase was then added and the extension reaction was carried out for 5 minutes. The reaction was stopped by bringing the samples to 10 mM in EDTA. The final concentrations of all reagents during the extension reactions were: […]
# Taq polymerase, sequence (P19821 whole entry): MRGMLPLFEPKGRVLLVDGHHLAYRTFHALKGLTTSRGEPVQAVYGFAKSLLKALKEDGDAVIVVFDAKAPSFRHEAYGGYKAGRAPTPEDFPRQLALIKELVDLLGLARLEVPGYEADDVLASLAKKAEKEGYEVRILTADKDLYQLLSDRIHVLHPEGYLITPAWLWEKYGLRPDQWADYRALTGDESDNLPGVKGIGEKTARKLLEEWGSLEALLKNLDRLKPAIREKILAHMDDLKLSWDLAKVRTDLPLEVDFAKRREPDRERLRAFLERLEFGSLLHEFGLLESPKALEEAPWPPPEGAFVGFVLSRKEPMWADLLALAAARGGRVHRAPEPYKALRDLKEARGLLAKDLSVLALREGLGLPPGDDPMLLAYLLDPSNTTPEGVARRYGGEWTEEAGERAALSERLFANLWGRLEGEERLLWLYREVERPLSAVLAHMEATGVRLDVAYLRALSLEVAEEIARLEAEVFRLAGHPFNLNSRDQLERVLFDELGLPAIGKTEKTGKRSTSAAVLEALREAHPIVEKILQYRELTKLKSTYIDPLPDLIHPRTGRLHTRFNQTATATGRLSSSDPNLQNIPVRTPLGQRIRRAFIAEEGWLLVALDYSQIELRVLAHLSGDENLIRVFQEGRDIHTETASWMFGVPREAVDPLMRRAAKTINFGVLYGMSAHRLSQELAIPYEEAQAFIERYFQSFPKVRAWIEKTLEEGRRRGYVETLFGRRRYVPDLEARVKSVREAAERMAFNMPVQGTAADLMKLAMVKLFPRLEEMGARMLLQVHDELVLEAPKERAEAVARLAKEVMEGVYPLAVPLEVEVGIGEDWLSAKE
compound,measurement,setting,value
"O=c1ccc2ccc3occc3c2o1 [IP, isopsoralen, reference compound]",solubility,"[1]; 1×TE buffer, aqueous buffer, thermodynamic from solid",2 µg/mL
"Cc1cc2c(ccc3c(C)cc(=O)oc32)o1 [DMIP, 4,5′-Dimethylisopsoralen]",maximum aqueous solubility,[2],8 µg/mL
same,Solubility in 1 × TE,[1],nd** (nd = not detectable (solubility was less than 1 μg/ml))
"COc1cc(OC)c2ccc(=O)oc2c1 [DMC, 5,7-dimethoxycoumarin]",loss of template activity of modified DNA,[3],50%
"C[S+](C)[O-] [DMSO, dimethyl sulfoxide]",product band CPM (average of duplicate samples),human placental DNA; 1% DMSO,"137,000 CPM"
same,product band CPM (average of duplicate samples),human placental DNA; 5% DMSO,"94,000 CPM"
same,product band CPM (average of duplicate samples),human placental DNA; 10% DMSO,"76,000 CPM"
"O=c1ccc2ccccc2o1 [Coumarin, coumarin]",inhibition of PCR in the absence of light,"PCR'd MACS 1555 target; dark control, coumarin 7×10^−3 to 7×10^−6 M",did not inhibit PCR at any of the concentrations tested
"Cc1oc2c(C)c3oc(=O)cc(C)c3cc2c1CO [HMT, 4′-hydroxymethyl-4,5′,8-trimethylpsoralen]",Taq polymerase extension on 71-mer monoadduct template,Taq I DNA polymerase,stop Tag polymerase
same,inhibition of polymerase by covalently bound monoadducts,E. coli polymerase I; nick-translating a double-stranded template,not inhibited
same,inhibition of polymerase by monoadducts,E. coli polymerase I; single-stranded bacteriophage DNA template,inhibited
"CN(CCCNC(=O)CCCC[C@@H]1SC[C@@H]2NC(=O)N[C@@H]21)CCCNc1ccc(N=[N+]=[N-])cc1[N+](=O)[O-] [photobiotin, reference compound]",concentration of pre-irradiated compound that shut down PCR,"HIV 115-mer; range 7×10^−4 M to 7×10^−10 M, 115-mer amplified at all lower concentrations",700 µM
same,extension of 71-mer after irradiation with compound,Taq polymerase; GE sunlamp 15 minutes on ice,inhibition only after irradiation
CN(C)c1ccc2nc3ccc(=[N+](C)C)cc-3sc2c1 [methylene blue],concentrations that inhibited PCR in the absence of light,"PCR'd MACS 1555 target; tested 4.3×10^−2 to 4.3×10^−5 M, 30 cycles",above 4.3×10^−5 M
"COc1c2occc2cc2ccc(=O)oc12 [Compound 8-MOP, 8-methoxypsoralen]",loss of template activity of modified DNA,[3],97%
"CC[n+]1c(-c2ccccc2)c2cc(N=[N+]=[N-])ccc2c2ccc(N)cc21 [monoazide ethidium chloride, reference compound]",inhibition of PCR by pre-irradiated compound,"HIV 115-mer; 3×10^−6 M to 3×10^−10 M, GE sunlamp 15 minutes on ice, 30 cycles",does not inhibit PCR
same,"extension of 71-mer, dark control","Taq polymerase; monoazide ethidium 1.4×10^−3 M, kept in the dark",inhibition of extension
